Results reported in paper PMC8329730 (Journal of medicinal chemistry, 2019).
Counter-ions that a name gives are not always drawn. One block for each compound: values may come before it.

Assays:
[1] = human liver microsome intrinsic clearance; conditions: human liver microsomes
[2] = LogD; assay type: physicochemical; conditions: pH 7.4
[3] = mouse PK, blood and brain, 10 mg/kg IP; assay type: in vivo; conditions: female, NMRI, whole blood
[4] = toxicity observed on dosing mice; assay type: in vivo, mouse; conditions: 50 mg/kg QD

- HLM Clint [1]: highly cleared
Compound: 1-((6aR,9aR)-4-(2-Aminopyrimidin-4-yl)-6a,7,8,9,9a,10-hexahydro-2H-cyclopenta[2,3][1,4]oxazepino[5,6,7-cd]indazol-2-yl)ethan-1-one [compound 49]

- logD [2]: 4.1
Compound: c1ccc2c(c1)Nc1n[nH]c3cccc(c13)O2 [9a]

Compound: CCOc1cc(-c2ccnc(N)n2)cc2[nH]nc(N)c12 [57a, 6-(2-Aminopyrimidin-4-yl)-4-ethoxy-1H-indazol-3-amine formate]
- Tmax [3]: 15 to 30 min

Compound: Cn1nc2c3c(cc(-c4ccnc(N)n4)cc31)Oc1ccccc1N2 [compound 18, 4-(2-Methyl-2,11-dihydrobenzo[2,3][1,4]oxazepino[5,6,7-cd]indazol-4-yl)pyrimidin-2-amine]
- animals dying within 30 minutes of treatment [4]: 50%
- animals experiencing inflammation after dosing ([4]; resolved with time): 50%
- Tmax [3]: 15 to 30 min
